Measurements taken from PubChem BioAssay AID1918932 (Molecular Pharmacology Branch, DTP, NCI, 2023).
“And” between values parts separate entries of the source, which are not always exact repeats. Identical values can stand only once. Blank lines part the entries; values can stand above or below the compound they belong to.

Tested on: 171881-019-R-J1-PDC complex spheroid viability
Assay: Anticancer human tumor 171881-019-R-J1-PDC patient-derived invasive breast carcinoma cell line growth inhibition
Conditions: for viability, T/C: stronger effect = lower value
In short: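 Complex spheroids of tumor cells with HUVEC and human MSCs, exposed to iadademstat combined with other agents. Each agent tested in half-log steps from near clinical Cmax (else 10 microM top), DMSO ≤0.25%.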

[1] = curve of first compound, second compound 0.1 µM
[2] = curve of first compound, second compound 0.316 µM
[3] = curve of first compound, second compound 1 µM
[4] = curve of first compound, second compound 3.16 µM
[5] = curve of first compound, second compound 10 µM
[6] = second compound 0.1 µM, first compound 0.000949 µM
[7] = second compound 0.1 µM, first compound 0.003 µM
[8] = second compound 0.1 µM, first compound 0.00949 µM
[9] = second compound 0.1 µM, first compound 0.03 µM
[10] = second compound 0.1 µM, first compound 0.0949 µM
[11] = second compound 0.1 µM, first compound 0.3 µM
[12] = second compound 0.316 µM, first compound 0.000949 µM
[13] = second compound 0.316 µM, first compound 0.003 µM
[14] = second compound 0.316 µM, first compound 0.00949 µM
[15] = second compound 0.316 µM, first compound 0.03 µM
[16] = second compound 0.316 µM, first compound 0.0949 µM
[17] = second compound 0.316 µM, first compound 0.3 µM
[18] = second compound 1 µM, first compound 0.000949 µM
[19] = second compound 1 µM, first compound 0.003 µM
[20] = second compound 1 µM, first compound 0.00949 µM
[21] = second compound 1 µM, first compound 0.03 µM
[22] = second compound 1 µM, first compound 0.0949 µM
[23] = second compound 1 µM, first compound 0.3 µM
[24] = second compound 3.16 µM, first compound 0.000949 µM
[25] = second compound 3.16 µM, first compound 0.003 µM
[26] = second compound 3.16 µM, first compound 0.00949 µM
[27] = second compound 3.16 µM, first compound 0.03 µM
[28] = second compound 3.16 µM, first compound 0.0949 µM
[29] = second compound 3.16 µM, first compound 0.3 µM
[30] = second compound 10 µM, first compound 0.000949 µM
[31] = second compound 10 µM, first compound 0.003 µM
[32] = second compound 10 µM, first compound 0.00949 µM
[33] = second compound 10 µM, first compound 0.03 µM
[34] = second compound 10 µM, first compound 0.0949 µM
[35] = second compound 10 µM, first compound 0.3 µM
[36] = second compound 0.1 µM, first compound 0.0316 µM
[37] = second compound 0.1 µM, first compound 0.1 µM
[38] = second compound 0.1 µM, first compound 0.316 µM
[39] = second compound 0.1 µM, first compound 1 µM
[40] = second compound 0.316 µM, first compound 0.0316 µM
[41] = second compound 0.316 µM, first compound 0.1 µM
[42] = second compound 0.316 µM, first compound 0.316 µM
[43] = second compound 0.316 µM, first compound 1 µM
[44] = second compound 1 µM, first compound 0.0316 µM
[45] = second compound 1 µM, first compound 0.1 µM
[46] = second compound 1 µM, first compound 0.316 µM
[47] = second compound 1 µM, first compound 1 µM
[48] = second compound 3.16 µM, first compound 0.0316 µM
[49] = second compound 3.16 µM, first compound 0.1 µM
[50] = second compound 3.16 µM, first compound 0.316 µM
[51] = second compound 3.16 µM, first compound 1 µM
[52] = second compound 10 µM, first compound 0.0316 µM
[53] = second compound 10 µM, first compound 0.1 µM
[54] = second compound 10 µM, first compound 0.316 µM
[55] = second compound 10 µM, first compound 1 µM
[56] = second compound 0.1 µM, first compound 0.00316 µM
[57] = second compound 0.1 µM, first compound 0.01 µM
[58] = second compound 0.316 µM, first compound 0.00316 µM
[59] = second compound 0.316 µM, first compound 0.01 µM
[60] = second compound 1 µM, first compound 0.00316 µM
[61] = second compound 1 µM, first compound 0.01 µM
[62] = second compound 3.16 µM, first compound 0.00316 µM
[63] = second compound 3.16 µM, first compound 0.01 µM
[64] = second compound 10 µM, first compound 0.00316 µM
[65] = second compound 10 µM, first compound 0.01 µM

SMILES: CCc1c2c(nc3ccc(O)cc13)-c1cc3c(c(=O)n1C2)COC(=O)[C@]3(O)CC + NC1CC1c1ccc(-c2cccc(O)c2)cc1
IC50 [1]: < 0.949 nM
IC50 [2]: < 0.949 nM
IC50 [3]: < 0.949 nM
IC50 [4]: < 0.949 nM
IC50 [5]: < 0.949 nM
viability, T/C [6]: 44.7%
viability, T/C [7]: 30.8%
viability, T/C [8]: 25.1%
viability, T/C [9]: 15.4%
viability, T/C [10]: 21.5%
viability, T/C [11]: 19.3%
viability, T/C [12]: 49%
viability, T/C [13]: 37.4%
viability, T/C [14]: 17.8%
viability, T/C [15]: 20%
viability, T/C [16]: 16.7%
viability, T/C [17]: 22.7%
viability, T/C [18]: 36.3%
viability, T/C [19]: 22.2%
viability, T/C [20]: 8.77%
viability, T/C [21]: 16.8%
viability, T/C [22]: 13.8%
viability, T/C [23]: 18.6%
viability, T/C [24]: 22.5%
viability, T/C [25]: 22.6%
viability, T/C [26]: 5.26%
viability, T/C [27]: 13.8%
viability, T/C [28]: 14.6%
viability, T/C [29]: 5.74%
viability, T/C [30]: 26.9%
viability, T/C [31]: 14.8%
viability, T/C [32]: 2.56%
viability, T/C [33]: 8.5%
viability, T/C [34]: 7.12%
viability, T/C [35]: 4.11%

IC50 (curve of compound): 278 nM and 542 nM
SMILES: Nc1ccccc1NC(=O)c1ccc(CNC(=O)OCc2cccnc2)cc1
viability, T/C (compound 0.00949 µM): 96.1% and 95.3%
viability, T/C (compound 0.03 µM): 102% and 98.5%
viability, T/C (compound 0.0949 µM): 135% and 108%
viability, T/C (compound 0.3 µM): 45.6% and 92.6%
viability, T/C (compound 0.949 µM): 2.72% and 9.58%
viability, T/C (compound 3 µM): 0.41% and 0.94%

SMILES: CC1COCCN1c1cc(C2(S(C)(=N)=O)CC2)nc(-c2ccnc3[nH]ccc23)n1 (configuration not stated) + NC1CCC(NC2CC2c2ccccc2)CC1
IC50 [1]: 1680 nM
IC50 [2]: 1840 nM
IC50 [3]: 1780 nM
IC50 [4]: 1830 nM
IC50 [5]: 2050 nM
viability, T/C [36]: 85.4%
viability, T/C [37]: 85%
viability, T/C [38]: 96.4%
viability, T/C [39]: 73.3%
viability, T/C (second compound 0.1 µM, first compound 3.16 µM): 20.8%
viability, T/C (second compound 0.1 µM, first compound 10 µM): 9.16%
viability, T/C [40]: 85.1%
viability, T/C [41]: 84.2%
viability, T/C [42]: 94.5%
viability, T/C [43]: 81.7%
viability, T/C (second compound 0.316 µM, first compound 3.16 µM): 21.7%
viability, T/C (second compound 0.316 µM, first compound 10 µM): 9.42%
viability, T/C [44]: 88.8%
viability, T/C [45]: 85.4%
viability, T/C [46]: 87%
viability, T/C [47]: 76.2%
viability, T/C (second compound 1 µM, first compound 3.16 µM): 23.7%
viability, T/C (second compound 1 µM, first compound 10 µM): 9.58%
viability, T/C [48]: 88.8%
viability, T/C [49]: 83%
viability, T/C [50]: 86.1%
viability, T/C [51]: 78.7%
viability, T/C (second compound 3.16 µM, first compound 3.16 µM): 24.2%
viability, T/C (second compound 3.16 µM, first compound 10 µM): 11.3%
viability, T/C [52]: 81.8%
viability, T/C [53]: 105%
viability, T/C [54]: 84.7%
viability, T/C [55]: 84.2%
viability, T/C (second compound 10 µM, first compound 3.16 µM): 29.4%
viability, T/C (second compound 10 µM, first compound 10 µM): 9.99%

SMILES: CC1COCCN1c1cc(-c2ccnn2C)c2ccnc(-c3ccn[nH]3)c2n1 (configuration not stated) + NC1CCC(NC2CC2c2ccccc2)CC1
IC50 [1]: 10.2 nM
IC50 [2]: 9.5 nM
IC50 [3]: 10.5 nM
IC50 [4]: 13.6 nM
IC50 [5]: 13.7 nM
viability, T/C [56]: 57%
viability, T/C [57]: 50.7%
viability, T/C [36]: 18.8%
viability, T/C [37]: 8.26%
viability, T/C [38]: 6.58%
viability, T/C [39]: 5.76%
viability, T/C [58]: 63.3%
viability, T/C [59]: 49.5%
viability, T/C [40]: 19%
viability, T/C [41]: 8.72%
viability, T/C [42]: 6.3%
viability, T/C [43]: 6.44%
viability, T/C [60]: 65.3%
viability, T/C [61]: 51.2%
viability, T/C [44]: 24.1%
viability, T/C [45]: 10.6%
viability, T/C [46]: 6.7%
viability, T/C [47]: 7.53%
viability, T/C [62]: 70.8%
viability, T/C [63]: 58.9%
viability, T/C [48]: 25.7%
viability, T/C [49]: 9.54%
viability, T/C [50]: 7.15%
viability, T/C [51]: 6.61%
viability, T/C [64]: 70%
viability, T/C [65]: 58.3%
viability, T/C [52]: 27.1%
viability, T/C [53]: 10.1%
viability, T/C [54]: 7.47%
viability, T/C [55]: 10.2%

SMILES: O=C(C=Cn1cnc(-c2cc(C(F)(F)F)cc(C(F)(F)F)c2)n1)NNc1cnccn1 + NC1CC1c1ccc(-c2cccc(O)c2)cc1
IC50 [1]: < 3.16 nM
IC50 [2]: < 3.16 nM
IC50 [3]: < 3.16 nM
IC50 [4]: < 3.16 nM
IC50 [5]: < 3.16 nM
viability, T/C [56]: 19.1%
viability, T/C [57]: 13%
viability, T/C [36]: 4.97%
viability, T/C [37]: 2.14%
viability, T/C [38]: 2.1%
viability, T/C [39]: 1.99%
viability, T/C [58]: 21.3%
viability, T/C [59]: 14.4%
viability, T/C [40]: 5.36%
viability, T/C [41]: 2.27%
viability, T/C [42]: 2.08%
viability, T/C [43]: 1.91%
viability, T/C [60]: 23.4%
viability, T/C [61]: 16.1%
viability, T/C [44]: 9.98%
viability, T/C [45]: 2.64%
viability, T/C [46]: 2.11%
viability, T/C [47]: 1.82%
viability, T/C [62]: 25.9%
viability, T/C [63]: 17.5%
viability, T/C [48]: 5.43%
viability, T/C [49]: 2.42%
viability, T/C [50]: 2.5%
viability, T/C [51]: 2.17%
viability, T/C [64]: 25%
viability, T/C [65]: 16.5%
viability, T/C [52]: 6.08%
viability, T/C [53]: 11.4%
viability, T/C [54]: 6.91%
viability, T/C [55]: 3.16%

SMILES: CCc1c2c(nc3ccc(O)cc13)-c1cc3c(c(=O)n1C2)COC(=O)[C@]3(O)CC + NC1CCC(NC2CC2c2ccccc2)CC1
IC50 [1]: 3.45 nM
IC50 [2]: 3.88 nM
IC50 [3]: 4.87 nM
IC50 [4]: 5.52 nM
IC50 [5]: 5.75 nM
viability, T/C [6]: 64.2%
viability, T/C [7]: 53.5%
viability, T/C [8]: 32.2%
viability, T/C [9]: 20.5%
viability, T/C [10]: 8.51%
viability, T/C [11]: 6.45%
viability, T/C [12]: 67.5%
viability, T/C [13]: 55.5%
viability, T/C [14]: 33.2%
viability, T/C [15]: 20.6%
viability, T/C [16]: 9.31%
viability, T/C [17]: 6.46%
viability, T/C [18]: 69.5%
viability, T/C [19]: 61.4%
viability, T/C [20]: 34.8%
viability, T/C [21]: 22.4%
viability, T/C [22]: 10.3%
viability, T/C [23]: 7.43%
viability, T/C [24]: 75%
viability, T/C [25]: 65.3%
viability, T/C [26]: 35.5%
viability, T/C [27]: 21.9%
viability, T/C [28]: 10.3%
viability, T/C [29]: 7.23%
viability, T/C [30]: 86%
viability, T/C [31]: 66.8%
viability, T/C [32]: 35.6%
viability, T/C [33]: 21.8%
viability, T/C [34]: 9.69%
viability, T/C [35]: 6.81%
